Source: patent publication US20180022819A1, “COMPOSITIONS AND METHODS FOR COMBINATION THERAPY WITH PROSTATE-SPECIFIC MEMBRANE ANTIGEN BINDING PROTEINS” (APTEVO RESEARCH AND DEVELOPMENT LLC, priority 2015, published 2018)

Experiments:
[1] = test system: 22Rv1 cells; assay: Flow cytometry: effect of prolonged enzalutamide treatment on PSMA expression level of 22Rv1 cells (Example 4); assay type: cell-based, human; settings: 10 μM enzalutamide
Description: Mean fluorescence intensity (MFI) of bound molecules on live cells is shown on the y-axis. Concentration (nM) of the anti-PSMA monoclonal antibody 107-1A4 labeled with FITC is shown on the x-axis.
22Rv1 cells (PSMA+ at low level) were obtained from ATCC (Manassas, Va.) and cultured according to the ATCC protocol in RPMI-1640 media plus 10% FBS. […] All four cultures were harvested, stained for PSMA with FITC-labeled anti-PSMA monoclonal antibody 107-1A4 (Acris), and PSMA expression assayed by standard flow cytometry procedures. 22Rv1 cells were harvested with trypsin, and placed into FACS buffer (PBS+0.5% BSA [Equitech]+2 mM EDTA [Life Technologies]) at 1×10e6 per ml. FITC-107-1A4 was prepared at 36 nM in FACS buffer, and serially diluted 1:3, before adding 50 μl to 2×10e5 22Rv1 cells which had been pelleted in a 96 well plate. After 30 minute incubation on ice, cells were washed 3 times in FACS buffer, resuspended in FACS buffer, and data acquired on a BD LSRII flow cytometer. The sample files were analyzed using FlowJo software; the median fluorescence intensity (MFI) of the live population of 22Rv1 cells in each well was calculated after gating on live cells (forward vs side scatter). Median fluorescence intensities were fit to a 4-parameter logistic curve and graphed as concentration vs. MFI using GraphPad PRISM® software.

[2] = test system: LNCaP cells; assay: Effect of enzalutamide on redirected T-cell cytotoxicity in LNCaP cells expressing GFP (Example 1); assay type: cell-based, human; settings: enzalutamide alone, […] nM in 0.2% DMSO, no T-cells, 4 days
Description: A titration of the anti-PSMA bispecific molecule TSC249 (protein sequence of SEQ ID NO: 78 in Table 3) was added to all sets of LNCaP cells in the amounts shown on the x-axis. T-cells and DMSO were added to the first set of LNCaP cells (leftmost set of bars). […] No T-cells and DMSO were added to the third set of LNCaP cells (set of bars second from the right). […] LNCaP cell growth (number of live cells) was measured by overall fluorescence and expressed as a fraction of live cells relative to the cells untreated with TSC249 on the y-axis.
LNCaP cells expressing GFP were cultured with donor T-cells at a 3:1 ratio of T-cells to LNCaP target cells for 4 days. […] DMSO alone was added to other samples. A titration of the anti-PSMA bispecific molecule TSC249 (protein sequence of SEQ ID NO: 78 in Table 3) was added to the cell cultures. LNCaP cell growth (number of live cells) was monitored by overall fluorescence.

[3] = test system: 22Rv1 cells; assay: Chromium-51 release assay of redirected T-cell cytotoxicity against 22Rv1 cells (Example 5); assay type: cell-based, human; settings: 22Rv1 cells resistant to enzalutamide, 10 μM enzalutamide pre-treatment
Description: FIG. 3 (top panel) is a graph showing the results of a chromium-51 release assay measuring the effectiveness of the anti-PSMA bispecific molecule TSC249 at inducing redirected T-cell cytotoxicity in 4 hours against enzalutamide-treated and untreated prostate cancer 22Rv1 cells. Percent specific lysis relative to a total lysis control is shown on the y-axis. Concentration (pM) of the anti-PSMA bispecific molecule TSC249 is shown on the x-axis.
To compare the sensitivity of enzalutamide-treated and untreated 22Rv1 prostate cancer cells to target-dependent T-cell cytotoxicity, a bispecific binding molecule targeting PSMA and CD3 was tested in a chromium (^51Cr) release assay using donor T-cells as effector cells. [See, e.g., US 2014/0161800 A1, which describes multispecific binding molecules that bind to prostate-specific membrane antigen (PSMA) and CD3.]
Cytotoxicity was assessed by a ^51Cr release assay. […]
Plates were incubated for 4 hours, spun at 225×g for 3 minutes, and 25 μL of supernatant was transferred from each well to the corresponding well of a 96-well LUMAPLATE® sample plate (Perkin Elmer). Sample plates were allowed to air dry in a chemical safety hood for 18 hours, and then radioactivity was read on a Topcount scintillation counter using a standard protocol. […]

[4] = test system: LNCaP cells; assay: Growth inhibition of LNCaP-GFP cells with primary human T-cells, 4 days, with combination index analysis (Example 6); assay type: cell-based; settings: enzalutamide plus TSC249 over a wide range of concentrations, T-cells, 4 days
Description: Additional procedures are described in Example 6. Percentage of live cells relative to an untreated control is shown on the y-axis.
Combination indices can indicate additive effects (CI=1), synergism (CI<1), or antagonism (CI>1).
Overall fluorescent signal from GFP enabled the quantitation of living LNCaP target cells in isolation from T-cells. […] TSC249 was added to have final concentrations of 125, 62.5, 31.25, 15.6, 7.8, 3.9, or 1.95 pM, or none. T-cells from several donors were used in replicate experiments, added at a ratio of 45,000 T-cells to 15,000 LNCaP cells per well.
After 4 days culture at 37° C. in 5% CO2, media was aspirated from wells and […] of 0.4% NP-40 was added to each well. Fluorescent signal from GFP in LNCaP cells adherent in wells was detected by a Spectramax plate reader, reading from the bottom of the wells. […]
The combination index theorem developed by Chou and Talalay was used to determine the interaction between the two compounds in their anti-cancer activity (see Chou, Cancer Res. 2010 Jan. 15; 70(2):440-6; Chou, Pharmacol Rev. 2006 September; 58(3):621-81). For each plate, relative fluorescence units (RFU) of all wells were normalized to the RFU of the well containing cells only, i.e., the proportion of living LNCaP cells in each well was expressed in relation to untreated LNCaP cells. […] Mean values were calculated from three replicates. […]

CNC(=O)c1ccc(N2C(=S)N(c3ccc(C#N)c(C(F)(F)F)c3)C(=O)C2(C)C)cc1F [enzalutamide]
MFI from binding of FITC-107-1A4 to the 22Rv1 cells (PSMA expression) ([1]; one week of incubation, vs cells cultured without enzalutamide): increase in the MFI
MFI from binding of FITC-107-1A4 to the 22Rv1 cells (PSMA expression) ([1]; three weeks of incubation): no additional increases
MFI from binding of FITC-107-1A4 to the 22Rv1 cells (PSMA expression) ([1]; two weeks of incubation): additional increase in the MFI value
reduction of live cells [2]: ~20%
sensitivity of target cells to T-cell mediated lysis [3]: increasing the sensitivity
live cell signal when combined with the other drug [4]: further decrease in live cell signal
